Data reported in ChEMBL document CHEMBL3885881, “DrugMatrix”.

Organism: Rattus norvegicus
Test: DrugMatrix - Regimen: Daily Repeat
Assay type: toxicity, organism-based, Sprague-Dawley
Design: regimen Daily Repeat, gender Male, age 6-8 weeks
Conditions: in vivo, po, route oral GAVAGE, vehicle 100 % WATER; for ABSOLUTE BASOPHIL / ABSOLUTE EOSINOPHIL / ABSOLUTE LYMPHOCYTE / ABSOLUTE MONOCYTE / ABSOLUTE SEGMENTED NEUTROPHIL / BASOPHIL / EOSINOPHIL / ERYTHROCYTE COUNT / HEMATOCRIT / HEMOGLOBIN / LEUKOCYTE COUNT / LYMPHOCYTE / MEAN CORPUSCULAR HEMOGLOBIN / MEAN CORPUSCULAR HEMOGLOBIN CONCENTRATION / MEAN CORPUSCULAR VOLUME / MONOCYTE / NEUTROPHIL / NUCLEATED RED BLOOD CELLS / PLATELET COUNT: tissue Blood; for ALANINE AMINOTRANSFERASE / ALBUMIN / ALKALINE PHOSPHATASE / ASPARTATE AMINOTRANSFERASE / BLOOD UREA NITROGEN / CARBON DIOXIDE / CHLORIDE / CHOLESTEROL / CREATINE PHOSPHOKINASE / CREATININE / GLUCOSE / LACTATE DEHYDROGENASE / LIPASE / PHOSPHORUS / POTASSIUM / SODIUM / TOTAL BILIRUBIN / TOTAL PROTEIN / URIC ACID: tissue Plasma
[1] = 0 mg/kg, 72 h, dose level Control, time 3 day
[2] = 0 mg/kg, 120 h, dose level Control, time 5 day
[3] = 63 mg/kg, 72 h, dose level High, time 3 day

## CNCCC=C1c2ccccc2CCc2ccccc21 [NORTRIPTYLINE]
[1]
  ABSOLUTE BASOPHIL: 0 CELLS/uL
  ABSOLUTE EOSINOPHIL: 123.17 CELLS/uL
  ABSOLUTE LYMPHOCYTE: 12677.83 CELLS/uL
  ABSOLUTE MONOCYTE: 66.17 CELLS/uL
  ABSOLUTE SEGMENTED NEUTROPHIL: 1149.5 CELLS/uL
  BASOPHIL: 0%
  EOSINOPHIL: 0.83%
  ERYTHROCYTE COUNT: 5.26 x10E6/uL
  HEMATOCRIT: 33.07%
  HEMOGLOBIN: 13.43 G/DL
  LEUKOCYTE COUNT: 14.02 x10E3/uL
  LYMPHOCYTE: 90.17%
  MEAN CORPUSCULAR HEMOGLOBIN: 25.62 pg
  MEAN CORPUSCULAR HEMOGLOBIN CONCENTRATION: 40.65 G/DL
  MEAN CORPUSCULAR VOLUME: 63 fL
  MONOCYTE: 0.5%
  NEUTROPHIL: 8.5%
  NUCLEATED RED BLOOD CELLS: 0.17 /100WBC
  PLATELET COUNT: 1142.83 x10E3/uL
  ALANINE AMINOTRANSFERASE: 45.17 u/L
  ALBUMIN: 3.78 G/DL
  ALKALINE PHOSPHATASE: 340.17 u/L
  ASPARTATE AMINOTRANSFERASE: 77.33 u/L
  BLOOD UREA NITROGEN: 14.67 mg/dL
  CARBON DIOXIDE: 28.67 mmol/L
  CHLORIDE: 101.17 MEQ/L
  CHOLESTEROL: 77.67 mg/dL
  CREATINE PHOSPHOKINASE: 263.67 u/L
  CREATININE: 0.15 mg/dL
  GLUCOSE: 169.33 mg/dL
  LACTATE DEHYDROGENASE: 230 u/L
  LIPASE: 9.67 u/L
  PHOSPHORUS: 11.8 mg/dL
  POTASSIUM: 5.91 MEQ/L
  SODIUM: 142.88 MEQ/L
  TOTAL BILIRUBIN: 0.22 mg/dL
  TOTAL PROTEIN: 5.7 G/DL
  URIC ACID: 1.35 mg/dL
[2]
  ABSOLUTE BASOPHIL: 0 CELLS/uL
  ABSOLUTE EOSINOPHIL: 125 CELLS/uL
  ABSOLUTE LYMPHOCYTE: 13809 CELLS/uL
  ABSOLUTE MONOCYTE: 351 CELLS/uL
  ABSOLUTE SEGMENTED NEUTROPHIL: 1581.67 CELLS/uL
  BASOPHIL: 0%
  EOSINOPHIL: 0.67%
  ERYTHROCYTE COUNT: 5.53 x10E6/uL
  HEMATOCRIT: 34.83%
  HEMOGLOBIN: 13.9 G/DL
  LEUKOCYTE COUNT: 15.87 x10E3/uL
  LYMPHOCYTE: 87.5%
  MEAN CORPUSCULAR HEMOGLOBIN: 25.25 pg
  MEAN CORPUSCULAR HEMOGLOBIN CONCENTRATION: 40.08 G/DL
  MEAN CORPUSCULAR VOLUME: 63.05 fL
  MONOCYTE: 2.17%
  NEUTROPHIL: 9.67%
  NUCLEATED RED BLOOD CELLS: 0 /100WBC
  PLATELET COUNT: 1044 x10E3/uL
  ALANINE AMINOTRANSFERASE: 50.67 u/L
  ALBUMIN: 4.33 G/DL
  ALKALINE PHOSPHATASE: 395 u/L
  ASPARTATE AMINOTRANSFERASE: 86 u/L
  BLOOD UREA NITROGEN: 15.33 mg/dL
  CARBON DIOXIDE: 29.33 mmol/L
  CHLORIDE: 101.5 MEQ/L
  CHOLESTEROL: 71.33 mg/dL
  CREATINE PHOSPHOKINASE: 323.17 u/L
  CREATININE: 0.18 mg/dL
  GLUCOSE: 145.67 mg/dL
  LACTATE DEHYDROGENASE: 389.5 u/L
  LIPASE: 9.83 u/L
  PHOSPHORUS: 11.35 mg/dL
  POTASSIUM: 6.39 MEQ/L
  SODIUM: 142.77 MEQ/L
  TOTAL BILIRUBIN: 0.18 mg/dL
  TOTAL PROTEIN: 6.1 G/DL
  URIC ACID: 1.52 mg/dL
[3]
  ABSOLUTE BASOPHIL: 0 CELLS/uL
  ABSOLUTE EOSINOPHIL: 63 CELLS/uL
  ABSOLUTE LYMPHOCYTE: 15345.67 CELLS/uL
  ABSOLUTE MONOCYTE: 215.33 CELLS/uL
  ABSOLUTE SEGMENTED NEUTROPHIL: 642.67 CELLS/uL
  BASOPHIL: 0%
  EOSINOPHIL: 0.33%
  ERYTHROCYTE COUNT: 6.2 x10E6/uL
  HEMATOCRIT: 38.33%
  HEMOGLOBIN: 14.97 G/DL
  LEUKOCYTE COUNT: 16.27 x10E3/uL
  LYMPHOCYTE: 94.33%
  MEAN CORPUSCULAR HEMOGLOBIN: 24.13 pg
  MEAN CORPUSCULAR HEMOGLOBIN CONCENTRATION: 39.07 G/DL
  MEAN CORPUSCULAR VOLUME: 61.83 fL
  MONOCYTE: 1.33%
  NEUTROPHIL: 4%
  NUCLEATED RED BLOOD CELLS: 1 /100WBC
  PLATELET COUNT: 1320 x10E3/uL
  ALANINE AMINOTRANSFERASE: 47.33 u/L
  ALBUMIN: 3.83 G/DL
  ALKALINE PHOSPHATASE: 416.67 u/L
  ASPARTATE AMINOTRANSFERASE: 75 u/L
  BLOOD UREA NITROGEN: 15 mg/dL
  CARBON DIOXIDE: 29.33 mmol/L
  CHLORIDE: 101 MEQ/L
  CHOLESTEROL: 74.67 mg/dL
  CREATINE PHOSPHOKINASE: 194 u/L
  CREATININE: 0.17 mg/dL
  GLUCOSE: 184 mg/dL
  LACTATE DEHYDROGENASE: 108 u/L
  LIPASE: 9 u/L
  PHOSPHORUS: 13.13 mg/dL
  POTASSIUM: 6.61 MEQ/L
  SODIUM: 143.73 MEQ/L
  TOTAL BILIRUBIN: 0.2 mg/dL
  TOTAL PROTEIN: 5.63 G/DL
  URIC ACID: 1.9 mg/dL
